Laboratory results: PMC12029069, “Synthesis and Evaluation of Antitumor and Anti-Angiogenesis Activity of Pyrone- or Pyridone-Embedded Analogs of Cortistatin A” (Marine Drugs, 2025)
Like-named read-outs stand apart in the source and are kept apart here. Marks after values point to notes of the source that are not given here.

How the values were obtained:
[1] = test system: CDK8; conditions: ref [37]; cited from earlier work
[2] = test system: HUVECs; experiment: Antiproliferative activity against HUVECs (WST-8, 72 h); assay type: cell-based, human; conditions: for IC50: 72 h, WST-8, average of triplicate; for S.I. (selective index: IC50 against KB3-1 cells/IC50 against HUVECs): KB3-1 over HUVECs
Procedure: HUVECs (5 × 10^5 cells/vial) were purchased from Kurabo Inc. and grown in HuMedia-EG2 medium with growth supplements (Kurabo, Osaka, Japan). HUVECs in the culture medium were plated into each well of 96-well plates (2 × 10^3 cells/well/100 µL). After 24 h, the serially diluted compounds as a 5% DMSO/EtOH or EtOH solution (1 µL) were added, and then the plates were incubated for an additional 72 h in a humidified atmosphere of 5% CO2 at 37 °C. The cell proliferation was detected by WST-8 colorimetric reagent (Nacalai Tesque, Inc., Kyoto, Japan). The IC50 value was determined by linear interpolation from the growth inhibition curve, and the averaged IC50 values of the triplicate experiment are shown in Table 1.

[3] = test system: human epidermoid carcinoma KB3-1 cells; experiment: Antiproliferative activity against KB3-1 cancer cells (WST-8, 72 h); assay type: cell-based
Procedure: KB3-1 cells were cultured in RPMI-1640 medium supplemented with 10% heat-inactivated fetal bovine serum and kanamycin (50 μg/mL). Cells were plated into 96-well microplates at 2 × 10^3 cells/100 μL assay medium/well, and various concentrations of test compounds were added to each well as a 5% DMSO/EtOH or EtOH solution (1 µL). The plates were incubated at 37 °C in a humidified atmosphere of 5% CO2 for 72 h, and cell proliferation was determined by WST-8 colorimetric assay as above, and the averaged IC50 values of the triplicate experiment are shown in Table 1.

[4] = Hepatic toxicity: AST and ALT activities in mouse serum; assay type: in vivo, mice; conditions: 1 mg/kg oral treatment group, day 9
Procedure: The body weight of mice of the control group (bFGF (+) or (−)) and the groups treated with the testing compound (0.1, 0.3, and 1 mg/kg) at day 1 and day 9 were measured. […]

[5] = test system: new blood vessels in the Matrigel plug induced by bFGF; experiment: In vivo Matrigel plug assay (bFGF-induced angiogenesis, hemoglobin content); set-up: species or system mice; conditions: 0.3 mg/kg oral, every other day (5 times), day 10, mean ± SD
Procedure: All animal procedures were approved by the Committee on Animal Experimentation of Osaka University (Approval number: DouYaku 24-8-1). The measurements of in vivo angiogenesis using Matrigel plugs were performed as described previously. An aliquot (250 µL) of Matrigel containing 200 ng/mL of bFGF and 100 U/mL of heparin was injected subcutaneously into the ventral side of female ddY mice (6 weeks old, N = 4, Japan SLC, Inc., Shizuoka, Japan). Then, analog 19 was orally administered on every other day (total 5 times: day 1, 3, 5, 7, and 9) as a suspension in 1% sodium carboxymethyl cellulose (CMC-Na). At day 10, the Matrigel plugs were photographed and removed. The levels of new vessels were quantified by measuring the hemoglobin of the Matrigel plug (µg hemoglobin/mg Matrigel) with the Drabkin reagent Kit.

[6] = test system: Murine sarcoma S180 cells; experiment: In vivo antitumor effect in mice inoculated with sarcoma S180 cells; conditions: every other day for 14 days, S180 s.c. in ddY mice
Text: Murine sarcoma S180 cells (1 × 10^6 cells/body) were implanted subcutaneously into the right ventral flank of female ddY mice (6 weeks old). After one week from implantation, analog 19 was orally administered on every other day for 14 days (total 7 times) as a suspension in 1% CMC-Na. Then, the tumor was isolated and weighed to calculate the inhibition ratio. The control group and the group treated with the testing compound consisted of six mice each in this study.

[7] = Body weight of mice during the Matrigel plug assay (acute toxicity); assay type: in vivo; conditions: mean ± SD
Procedure: The body weight of mice of the control group (bFGF (+) or (−)) and the groups treated with the testing compound (0.1, 0.3, and 1 mg/kg) at day 1 and day 9 were measured. The mean activities of aspartate aminotransferase (AST) and alanine aminotransferase (ALT) in mouse serum at day 10 of control group and the 1 mg/kg treated group were measured using the LabAssay^TM AST or ALT kit (FUJIFILM Wako Pure Chemical Co., Osaka, Japan), respectively.

[8] = test system: HUVECs; conditions: cited from earlier work; for S.I. (selective index: IC50 against KB3-1 cells/IC50 against HUVECs): KB3-1 over HUVECs
[9] = test system: human epidermoid carcinoma KB3-1 cells; conditions: cited from earlier work
[10] = Homo sapiens, KB 3-1, WST-8, average of triplicate

## CN(C)[C@H]1CC[C@@]2(C)[C@@H](CC[C@@H]3[C@@H]2CC[C@]2(C)[C@@H](c4ccc5ccncc5c4)CC[C@@H]32)C1 [Compound 28, reference compound]
[1]
  IC50: 24 nM
[2]; Homo sapiens, HUVEC
  IC50: 560 nM
[2]
  S.I. (selective index: IC50 against KB3-1 cells/IC50 against HUVECs): 8.6
[3]; [10]
  IC50: 4800 nM

## C[C@]12CCC3=Cc4c(cc[nH]c4=O)O[C@H]3[C@@H]1CC[C@@H]2c1ccc2ccncc2c1 [Compound 13, (3S,3aR,11aS,11bR)-3-(Isoquinolin-7-yl)-3a-methyl-2,3,3a,4,5,8,11a,11b-octahydrocyclopenta[7, 8]chromeno[3,2-c]pyridin-7(1H)-one]
[2]; Homo sapiens, HUVEC
  IC50: 10 nM
[2]
  S.I. (selective index: IC50 against KB3-1 cells/IC50 against HUVECs): 1100
[2]; relative to analog 7
  fold higher potency than 7 against HUVECs: 9 fold
[3]; [10]
  IC50: 11000 nM

## Cn1ccc2c(c1=O)C=C1CC[C@]3(C)[C@@H](c4ccc5ccncc5c4)CC[C@H]3[C@@H]1O2 [Compound 15, (3S,3aR,11aS,11bR)-3-(Isoquinolin-7-yl)-3a,8-dimethyl-2,3,3a,4,5,8,11a,11b-octahydrocyclopenta[7, 8]chromeno[3,2-c]pyridin-7(1H)-one]
[2]; Homo sapiens, HUVEC
  IC50: 3 nM
[2]
  S.I. (selective index: IC50 against KB3-1 cells/IC50 against HUVECs): 2870
[2]; relative to analog 13
  fold potency over 13 against HUVECs: 3.3 fold
[3]; [10]
  IC50: 8600 nM

## Cn1cc(CO)c2c(c1=O)C=C1CC[C@]3(C)[C@@H](c4ccc5ccncc5c4)CC[C@H]3[C@@H]1O2 [Compound 19, (3S,3aR,11aS,11bR)-10-(Hydroxymethyl)-3-(isoquinolin-7-yl)-3a,8-dimethyl-2,3,3a,4,5,8,11a,11b-octahydrocyclopenta[7, 8]chromeno[3,2-c]pyridin-7(1H)-one]
[4]
  ALT (alanine aminotransferase activity): 48.4 ± 3.3 IU/L
  AST (aspartate aminotransferase activity): 57.8 ± 4.5 IU/L
[5]
  Hb Content (hemoglobin µg/isolated Matrigel mg): 2.42 ± 0.79 µg/mg
[6]; 0.1 mg/kg oral
  tumor growth inhibition, reduction compared to the control group: ~ 75%
[6]; 1 mg/kg oral
  tumor weight reduction: more than 85%
[7]; 0.1 mg/kg oral
  Body Weight Day 1: 25.70 ± 0.58 g
  Body Weight Day 9: 26.12 ± 0.58 g
[7]; 0.3 mg/kg oral
  Body Weight Day 1: 25.60 ± 0.64 g
  Body Weight Day 9: 26.14 ± 0.62 g
[7]; 1.0 mg/kg oral
  Body Weight Day 1: 26.30 ± 0.41 g
[2]
  IC50: 1 nM
  S.I. (selective index: IC50 against KB3-1 cells/IC50 against HUVECs): 6400
[3]; WST-8, average of triplicate
  IC50: 6400 nM

## CC(=O)NCC1CC(=O)C2=C(C1)O[C@@H]1C(=C2)CC[C@]2(C)[C@@H](c3ccc4ccncc4c3)CC[C@@H]12 (stereo partly shown) [Compound 3]
[8]; ref [21]
  S.I. (selective index: IC50 against KB3-1 cells/IC50 against HUVECs): 3150 ^c
[8]; reported value ref [21]
  IC50: 2.6 nM
[9]; reported value ref [21]
  IC50: 8200 nM

## C[C@]12CCC3=CC4=C(CCCC4=O)O[C@H]3[C@@H]1CC[C@@H]2c1ccc2ccncc2c1 [Compound 2]
[8]; ref [21]
  S.I. (selective index: IC50 against KB3-1 cells/IC50 against HUVECs): 300 ^c
[8]; reported value ref [21]
  IC50: 35 nM
[9]; reported value ref [21]
  IC50: 10500 nM

## CC(=O)NCc1c2c(c(=O)n(C)c1C)C=C1CC[C@]3(C)[C@@H](c4ccc5ccncc5c4)CC[C@H]3[C@@H]1O2 [Compound 27, N-(((3S,3aR,11aS,11bR)-3-(Isoquinolin-7-yl)-3a,8,9-trimethyl-7-oxo-1,2,3,3a,4,5,7,8,11a,11b-decahydrocyclopenta[7, 8]chromeno[3,2-c]pyridin-10-yl)methyl)acetamide]
[2]
  IC50: 10 nM
  S.I. (selective index: IC50 against KB3-1 cells/IC50 against HUVECs): 1340
[3]; WST-8, average of triplicate
  IC50: 13400 nM

## Cc1cc2c(c(=O)o1)C=C1CC[C@]3(C)[C@@H](c4ccc5ccncc5c4)CC[C@H]3[C@@H]1O2 [Compound 7, (3S,3aR,11aS,11bR)-3-(Isoquinolin-7-yl)-3a,9-dimethyl-1,2,3,3a,4,5,11a,11b-octahydro-7H-cyclopenta[h]pyrano[4,3-b]chromen-7-one]
[2]; Homo sapiens, HUVEC
  IC50: 90 nM
[2]
  S.I. (selective index: IC50 against KB3-1 cells/IC50 against HUVECs): 700
[3]; [10]
  IC50: 62800 nM

## Cortistatin A [Compound 1]
[8]; ref [8]
  S.I. (selective index: IC50 against KB3-1 cells/IC50 against HUVECs): 3900 ^b
[8]; reported value ref [8]
  IC50: 1.8 nM
[9]; reported value ref [8]
  IC50: 7000 nM

## Cc1oc(=O)c2c(c1CO)O[C@@H]1C(=C2)CC[C@]2(C)[C@@H](c3ccc4ccncc4c3)CC[C@@H]12 [Compound 11, (3S,3aR,11aS,11bR)-10-(Hydroxymethyl)-3-(isoquinolin-7-yl)-3a,9-dimethyl-1,2,3,3a,4,5,11a,11b-octahydro-7H-cyclopenta[h]pyrano[4,3-b]chromen-7-one]
[2]; Homo sapiens, HUVEC
  IC50: 20 nM
[2]
  S.I. (selective index: IC50 against KB3-1 cells/IC50 against HUVECs): 500
[3]; [10]
  IC50: 10000 nM
